This is an account of results in PMC12083136 (Microbiome, 2025).

For this experiment, the system named is ruminal bacterial urease. Nature of the experiment: urease activity. It counts as biochemical.

As for `C=CCS[S+]([O-])CC=C` (stereo not shown) [allicin], the IC50 turned out to be 126.8 ± 1.2 µM.

As usually defined, the IC50 is the concentration needed to halve the response being measured.
